The values that follow are results of earlier work, collected in patent publication US5021421A, “2-(1-Piperazinyl)-4-phenylcycloalkanopyridine derivatives, processes for the production thereof, and pharmaceutical composition containing the same” (Dainippon Pharmaceutical Co., Ltd., priority 1989, dated 1991).

Structures are written as SMILES.

The conditions of the data set: U.S. Pat. No. 4,831,034; cited from earlier work.

As for `Cc1ccc(CN2CCN(c3cc(-c4ccccc4)ccn3)CC2)cc1` [2-[4-(4-methylbenzyl)-1-piperazinyl]-4-phenylpyridine], the “activity as an anti-psychotic drug or as a neuroleptic drug” value is recorded as “weak activity”.
